Experimental data: US20150297564A1 (CORNELL UNIVERSITY, priority 2014, published 2015)

Experiments:
PDX1 = experiment: Islet PDX1 protein level (Western blot); type: cell-based, mouse
Description: (§1) All chemicals were purchased from Sigma (Saint Louis, Mo.) unless indicated otherwise. Detailed protocols, reagents, and instruments for islet isolation, culture, and insulin secretion were the same as described previously (Wang et al., “Molecular Mechanisms for Hyperinsulinaemia Induced by Overproduction of Selenium-Dependent Glutathione Peroxidase-1 in Mice,” Diabetologia 51:1515-1524 (2008), which is hereby incorporated by reference in its entirety). Briefly, Langerhans' islets were isolated from the WT, GKO, SKO, and dKO mice using a standard procedure (Gotoh et al., “An Improved Method for Isolation of Mouse Pancreatic Islets,” Transplantation 40:437-438 (1985), which is hereby incorporated by reference in its entirety) with minor modifications. Isolated islets (50 per sample, n=3 per group) were recovered in RPMI 1640 (Gibco, Grand Island, N.Y.) with 5.5 mM glucose and 10% FBS for 2 hours before treatment. For the islet experiments, ebselen, CuDIPs, and Se (sodium selenite) were used at 50, 10, and 0.1 μM and prepared in DMSO, ethanol, and saline, respectively. The same amounts of vehicle were used as the respective controls. The chemicals were removed after 5 hour incubation, and the islets were transferred to Krebs-Henseleit buffer for 30 min and then incubated for 60 min with 2.8 or 16.7 mM glucose in the same buffer. The supernatants were collected for insulin analysis and the islets were used for mRNA, protein, and enzyme activity analyses.
(§2) Islet samples used for Western blot analysis were homogenized in phosphate buffer (50 mM, pH 7.4) containing 0.1% Triton X-100 and protease inhibitor mixture (AEBSF, aprotinin, bestatin hydrochloride, E-64-[N-(transepoxysuccinyl)-L-leucine 4-guanidinobutylamide], leupeptin, and pepstatin A). The homogenates were centrifuged at 14000×g for 10 min at 4° C. A total of 10 μg of protein per lane was subjected to Western blot analysis (McClung et al., “Development of Insulin Resistance and Obesity in Mice Overexpressing Cellular Glutathione Peroxidase,” Proc. Natl. Acad. Sci. USA 101:8852-8857 (2004), which is hereby incorporated by reference in its entirety). After the gel electrophoresis, the separated proteins were transferred onto a protran BA85 nitrocellulose membrane (Schleicher Schuell Bioscience, Keene, N.H.). The membranes were incubated first with respective primary antibodies (rabbit anti-GLUT2, anti-PDX1, and anti-UCP2, Millipore, Billerica, Mass.), and thereafter the second antibody against rabbit IgG (Bio-Rad, Hercules, Calif.). For loading and transfer normalization, the rabbit anti-β-actin antibody (Cell Signaling, Beverly, Mass.) was used. An enhanced chemiluminescent kit (Pierce, Rockford, Ill.) was used for detection of the band intensity.

UCP2 = experiment: Islet UCP2 protein level (Western blot); type: cell-based, mouse
Description: as §1, §2

[1] = tested on: islets isolated from WT, GKO, SKO, and dKO mice; experiment: Glucose-stimulated insulin secretion (GSIS) of isolated islets; type: cell-based, mouse; settings: for GSIS (insulin secretion) versus solvent control: 16.7 mM glucose, 5 hour pre-treatment
Description: as §1

GLUT2 = experiment: Islet GLUT2 protein level (Western blot); type: cell-based, mouse
Description: as §1, §2

GK = experiment: Islet GK enzyme activity after treatment; type: cell-based, mouse
Description: as §1
(§3) Islet GK activity was assayed at 28° C. by measuring absorbance increases of NADPH at 340 nm in a coupled enzyme system. One unit of GK activity was defined as the amount that catalyzes the formation of 1 μmole of glucose 6-phosphate per minute. Islet and liver LDH activities were measured using a kit from Sigma according to the manufacturer's instructions. Islet and liver GSR activities were measured as previously-described (Zhu et al., “Double Null of Selenium-Glutathione Peroxidase-1 and Copper, Zinc-Superoxide Dismutase Enhances Resistance of Mouse Primary Hepatocytes to Acetaminophen Toxicity,” Exp. Biol. Med. (Maywood) 231:545-552 (2006), which is hereby incorporated by reference in its entirety) and one unit of activity was defined as 1 nmol of glutathione disulfide reduced per minute. Plasma ALT activity was assayed using a kit (Thermo Scientific, Waltham, Mass.) according to the manufacturer's instructions. Plasma AKP activity was measured by the hydrolysis of p-nitrophenol phosphate to p-nitrophenol, and the enzyme activity unit was defined as the amount of activity that releases 1 μmol of p-nitrophenol per minute at 30° C. (Bowers et al., “A Continuous Spectrophotometric Method for Measuring the Activity of Serum Alkaline Phosphatase,” Clin. Chem. 12:70-89 (1966), which is hereby incorporated by reference in its entirety).

[2] = i.p. in 4% w/v hydroxypropyl-β-cyclodextrin to C57BL/6 mice or suspended in water orally to humans; cited from earlier work
intracellular ROS = experiment: Islet intracellular ROS (DCFH-DA probe); type: cell-based, mouse; settings: GKO islets, DCF probe
Method: Islet ROS levels were determined using the fluorescent probe, 2′,7′-dichlorofluorescin diacetate (“DCFH-DA”). Briefly, the treated islets were washed and incubated with DCFH-DA (20 μM) for 10 min at 37° C. After removal of the probe, cells were washed with pre-warmed PBS. Fluorescence was monitored at 488 nm excitation and 525 nm emission wavelengths.

[3] = biological target: T1, glutathione reductase (GSR) (Mus musculus, UniProt P47791); experiment: Islet GSR activity; type: cell-based; settings: WT and GKO islets
T1 construct: from tissue; host or cells: isolated pancreatic islets of WT and GKO mice
T1 sequence (P47791 27-500): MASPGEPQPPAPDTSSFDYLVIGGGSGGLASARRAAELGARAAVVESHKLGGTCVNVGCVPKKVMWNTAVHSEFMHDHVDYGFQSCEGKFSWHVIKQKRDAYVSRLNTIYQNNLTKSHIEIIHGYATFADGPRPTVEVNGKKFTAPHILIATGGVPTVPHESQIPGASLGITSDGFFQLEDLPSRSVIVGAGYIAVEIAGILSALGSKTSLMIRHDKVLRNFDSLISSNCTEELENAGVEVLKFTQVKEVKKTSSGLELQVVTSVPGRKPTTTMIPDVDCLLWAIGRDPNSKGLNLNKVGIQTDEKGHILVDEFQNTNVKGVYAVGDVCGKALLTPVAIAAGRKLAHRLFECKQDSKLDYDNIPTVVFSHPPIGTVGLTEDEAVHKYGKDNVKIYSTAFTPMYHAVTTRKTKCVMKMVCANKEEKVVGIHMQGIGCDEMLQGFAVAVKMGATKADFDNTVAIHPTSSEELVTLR
Method: as §3

GKO mice [4] = experiment: Off-target toxicity in GKO mice (plasma ALT, AKP; liver LDH, GSR); type: in vivo, mouse; settings: 50 mg/kg i.p., 1 hour
Method: (§4) Ebselen was dissolved in dimethyl sulfoxide (DMSO) and injected with saline (1:1 by volume) together. The same volume of DMSO and saline was used as the solvent control. Blood glucose concentrations were measured by clipping tails and using the Glucometer Elite system (Bayer, Elkhart, Ind.). Plasma insulin concentrations were determined using a rat/mouse Insulin ELISA kit with mouse insulin as standards (Crystal Chem, Downers Grove, Ill.).
as §3

GKO mice [5] = experiment: Glucose tolerance test (GTT) in GKO mice; type: in vivo, mouse; settings: fasted GKO mice, 50 mg/kg i.p., glucose 1 g/kg
Method: as §4

GKO mice [6] = experiment: In vivo GSIS test in GKO mice (plasma insulin); design: species or system mouse; settings: fasted GKO mice
Method: as §4

[7] = tested on: lactate dehydrogenase (LDH); experiment: Islet LDH activity; type: cell-based, mouse; settings: WT and GKO islets
Method: as §3

[8] = tested on: gk, glut2, pdx1, ucp2 and genes in the ARE, GR, Wnt and NFAT pathways; experiment: Real time Q-PCR of islet mRNA levels (GSIS regulators, ARE, GR, Wnt, NFAT pathway genes); type: cell-based, mouse; settings: dKO islets
Description: All chemicals were purchased from Sigma (Saint Louis, Mo.) unless indicated otherwise. Detailed protocols, reagents, and instruments for islet isolation, culture, and insulin secretion were the same as described previously (Wang et al., “Molecular Mechanisms for Hyperinsulinaemia Induced by Overproduction of Selenium-Dependent Glutathione Peroxidase-1 in Mice,” Diabetologia 51:1515-1524 (2008), which is hereby incorporated by reference in its entirety). Briefly, Langerhans' islets were isolated from the WT, GKO, SKO, and dKO mice using a standard procedure (Gotoh et al., “An Improved Method for Isolation of Mouse Pancreatic Islets,” Transplantation 40:437-438 (1985), which is hereby incorporated by reference in its entirety) with minor modifications. Isolated islets (50 per sample, n=3 per group) were recovered in RPMI 1640 (Gibco, Grand Island, N.Y.) with 5.5 mM glucose and 10% FBS for 2 hours before treatment. […]
Total RNA was extracted from islets using Trizol reagent (Invitrogen, Carlsbad, Calif.). […] Relative mRNA levels were determined by real time Q-PCR (7900HT; Applied Biosystems, Foster City, Calif.) as previously described (Pepper et al., “Impacts of Dietary Selenium Deficiency on Metabolic Phenotypes of Diet-Restricted GPX1-Overexpressing Mice,” Antioxid. Redox Signal. 14:383-390 (2011), which is hereby incorporated by reference in its entirety).

## O=[Se]([O-])[O-].[Na+].[Na+] [Na2SeO3, sodium selenite]
PDX1; dKO islets
  PDX1 protein change versus control (direction): Neither CuDIPs nor Na2SeO3 affected
UCP2; dKO islets
  UCP2 protein change versus control (direction): Neither CuDIPs nor Na2SeO3 affected
[1]; GKO islets
  GSIS (insulin secretion) versus solvent control: did not affect
[1]; SKO islets
  GSIS (insulin secretion) versus solvent control: elevated
[1]; WT islets
  GSIS (insulin secretion) versus solvent control: did not affect
[1]; dKO islets
  GSIS (insulin secretion) versus solvent control: elevated
GLUT2; dKO islets
  GLUT2 protein change versus control (direction): Neither CuDIPs nor Na2SeO3 affected
GK; GKO islets
  GK activity change versus control (direction): increased
GK; SKO islets
  GK activity change versus control (direction): decreased
GK; dKO islets
  GK activity change versus control (direction): Neither CuDIPs nor Na2SeO3 affected

## O=c1c2ccccc2[se]n1-c1ccccc1 [ebselen]
PDX1; GKO islets
  PDX1 protein elevation versus control: 4.0 fold
PDX1; SKO islets
  PDX1 protein elevation versus control: 3.2 fold
PDX1; WT islets
  PDX1 protein elevation versus control: 5.5 fold
[2]
  absorption: absorbed to blood
  blood-brain barrier crossing: crossed the blood-brain barrier
Intracellular ROS
  decrease of intracellular ROS: 74%
[3]
  effect on GSR activity: no effect
GKO mice [4]
  hepatic GSR activity versus control: no differences
  hepatic LDH activity versus control: no differences
  plasma alanine aminotransferase (ALT) activity versus control: no differences
  plasma alkaline phosphatase (AKP) activity versus control: no differences
GLUT2; GKO islets
  GLUT2 protein elevation versus control: 2.1 fold
GLUT2; SKO islets
  GLUT2 protein elevation versus control: 6.4 fold
GLUT2; WT islets
  GLUT2 protein elevation versus control: 4.9 fold
GLUT2; dKO islets
  GLUT2 protein elevation versus control: 85%
GKO mice [5]; 15 min
  glucose clearance improved: 17%
GKO mice [5]; 30 min
  glucose clearance improved: 18%
GKO mice [5]; 60 min
  glucose clearance improved: 21%
GKO mice [6]; 50 mg/kg i.p. 1 hour before glucose challenge, 0 min (baseline)
  elevation of plasma insulin concentration versus control: 95%
GKO mice [6]; 50 mg/kg i.p., 15 min after the glucose challenge
  elevation of plasma insulin concentration versus control: 1.2 fold
GKO mice [6]; 50 mg/kg i.p., 30 min after the glucose challenge
  elevation of plasma insulin concentration versus control: 91%
GK; GKO islets
  GK activity elevation versus control: 20%
GK; SKO islets
  GK activity elevation versus control: 86%
GK; WT islets
  GK activity elevation versus control: 74%
GK; dKO islets
  GK activity elevation versus control: 58%
[7]
  effect on LDH activity: no effect

## copper diisopropylsalicylate [CuDIPs]
PDX1; SKO islets
  PDX1 protein elevation versus control: 2.4 fold
PDX1; WT islets
  PDX1 protein change versus control (direction): increased
PDX1; dKO islets
  PDX1 protein change versus control (direction): Neither CuDIPs nor Na2SeO3 affected
UCP2; SKO islets
  UCP2 protein decrease versus control: 78%
UCP2; WT islets
  UCP2 protein change versus control (direction): increased
UCP2; dKO islets
  UCP2 protein change versus control (direction): Neither CuDIPs nor Na2SeO3 affected
[8]
  expression of genes in the four pathways (ARE, GR, Wnt, NFAT) versus controls: suppressed
[1]; SKO islets, 2.8 mM glucose
  baseline insulin secretion versus solvent control: promoted
[1]; SKO islets
  GSIS (insulin secretion) versus solvent control: promoted
[1]; WT islets
  GSIS (insulin secretion) versus solvent control: no effect
GLUT2; GKO islets
  GLUT2 protein change versus control (direction): increase
GLUT2; SKO islets
  GLUT2 protein elevation versus control: 63%
GLUT2; WT islets
  GLUT2 protein change versus control (direction): increased
GLUT2; dKO islets
  GLUT2 protein change versus control (direction): Neither CuDIPs nor Na2SeO3 affected
GK; GKO islets
  GK activity change versus control (direction): decrease
GK; dKO islets
  GK activity change versus control (direction): Neither CuDIPs nor Na2SeO3 affected
